Assay results taken from US20130302825A1, “USES OF MACROPHAGE MANNOSE RECEPTOR TO SCREEN COMPOUNDS AND USES OF THESE COMPOUNDS” (Merck, priority 2010, published 2013).

Biological target: T1, mannose receptor (Rattus norvegicus, UniProt A0A8I5XVS2)
T1 construct: NR8383 rat alveolar macrophages were obtained from ATCC; host or cells: NR8383 rat alveolar macrophages
T1 sequence (A0A8I5XVS2 1-1431): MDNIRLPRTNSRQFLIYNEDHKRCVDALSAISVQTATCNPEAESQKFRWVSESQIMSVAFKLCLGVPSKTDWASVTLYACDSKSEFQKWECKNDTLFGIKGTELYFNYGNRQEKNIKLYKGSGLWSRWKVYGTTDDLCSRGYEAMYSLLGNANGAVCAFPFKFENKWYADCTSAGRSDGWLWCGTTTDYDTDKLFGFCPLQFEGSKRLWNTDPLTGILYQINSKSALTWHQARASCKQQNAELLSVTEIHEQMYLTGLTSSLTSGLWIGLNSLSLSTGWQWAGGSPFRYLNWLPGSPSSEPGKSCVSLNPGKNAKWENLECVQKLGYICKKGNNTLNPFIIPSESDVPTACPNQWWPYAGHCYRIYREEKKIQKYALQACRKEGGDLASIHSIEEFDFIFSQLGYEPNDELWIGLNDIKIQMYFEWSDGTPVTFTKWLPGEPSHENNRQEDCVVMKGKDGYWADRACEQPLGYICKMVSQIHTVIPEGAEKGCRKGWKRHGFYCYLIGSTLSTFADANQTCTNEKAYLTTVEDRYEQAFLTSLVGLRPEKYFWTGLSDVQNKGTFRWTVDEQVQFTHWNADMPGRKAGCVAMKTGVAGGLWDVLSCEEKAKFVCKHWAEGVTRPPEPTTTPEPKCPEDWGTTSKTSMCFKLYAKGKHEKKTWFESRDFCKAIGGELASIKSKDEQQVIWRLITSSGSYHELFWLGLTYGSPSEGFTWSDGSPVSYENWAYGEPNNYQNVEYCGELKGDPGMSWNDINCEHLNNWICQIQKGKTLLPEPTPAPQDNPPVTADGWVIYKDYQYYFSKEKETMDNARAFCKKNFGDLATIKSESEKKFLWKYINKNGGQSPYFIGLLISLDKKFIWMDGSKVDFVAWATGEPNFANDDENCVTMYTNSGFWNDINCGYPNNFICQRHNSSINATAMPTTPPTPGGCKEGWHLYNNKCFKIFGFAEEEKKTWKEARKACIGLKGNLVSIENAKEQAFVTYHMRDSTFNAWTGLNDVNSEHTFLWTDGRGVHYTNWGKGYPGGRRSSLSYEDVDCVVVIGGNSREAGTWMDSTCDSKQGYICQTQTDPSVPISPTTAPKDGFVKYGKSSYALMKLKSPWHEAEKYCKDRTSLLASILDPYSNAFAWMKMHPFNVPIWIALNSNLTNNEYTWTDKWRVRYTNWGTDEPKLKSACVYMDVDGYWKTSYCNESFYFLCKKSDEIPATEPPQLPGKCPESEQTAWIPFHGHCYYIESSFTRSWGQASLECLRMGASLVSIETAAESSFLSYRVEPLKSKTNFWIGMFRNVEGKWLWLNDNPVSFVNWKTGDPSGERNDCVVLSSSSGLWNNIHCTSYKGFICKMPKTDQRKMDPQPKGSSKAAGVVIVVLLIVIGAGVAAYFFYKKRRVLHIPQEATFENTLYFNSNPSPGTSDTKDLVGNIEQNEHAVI
Test: Uptake of Alexa488-SI-0052 in NR8383 in the presence of competing sugars
Format: cell-based
Conditions: 250 nM Alexa488-SI-0052, varying sugar concentrations; FIG. 1b
Protocol: NR8383 rat alveolar macrophages were obtained from ATCC and cultured in gelatin coated flasks in F12K medium +15% heat inactivated FBS+antibiotics. For uptake experiments, NR8383 were seeded in gelatin coated 96 well plates and allowed to reach confluence. […] Each condition was carried out in triplicate. […] Cells were transferred to V-bottom 96 well plates and centrifuged (800 g, 7 min, 4C) to collect. Pellets were washed with cold 5 mM EDTA and again centrifuged. Cells were then resuspended in 1% paraformaldehyde in PBS and stored at 4C in the dark until analysis.
Uptake of Alexa488-SI-0052, as measured by cellular fluorescence, was assessed using flow cytometry (FACSCalibur). The geometric mean of fluorescence for 5000-10000 cells was measured for each sample. Mannose specific uptake was taken to be the difference between total uptake (without mannan) and the uptake in the presence of mannan (non-specific uptake).
The uptake of Alexa488-SI-0052 was measured, as described above, in the presence of various sugars known to have varying affinities for the mannose receptor. NR8383 were incubated with a constant concentration of Alexa488-SI-0052 (250 nM, chosen because this concentration lies on the concentration dependent portion of the Alexa488-SI-0052 uptake curve) and varying concentrations of α-methyl mannose (α-MM), glucose and galactose.

## COC1O[C@H](CO)[C@@H](O)[C@H](O)[C@@H]1O (stereo partly drawn) [α-MM, α-methyl mannose]
  Interference with Alexa488-SI-0052 uptake (rank order): interferes the most

## O=C[C@H](O)[C@@H](O)[C@@H](O)[C@H](O)CO [galactose]
  Interference with Alexa488-SI-0052 uptake (rank order): then galactose
